# Assay results taken from patent US10350244B2, “Pharmaceutical composition for the treatment of diseases in which LPS- and/or apoptosis regulation is disturbed” (priority 2013, dated 2019).
# Assays:
# Format in all cases: cell-based, human
# [1] = test system: monocytes from the blood of patients with CRC; test: Gene expression in MNC/monocytes from blood of CRC patients (RT-qPCR); details: monocytes from blood of CRC patients UICC I to IV, 12-hour incubation, synergism in UICC I-III, FIG. 5
# Procedure: (§1) After collection, EDTA tubes were left to stand at room temperature (RT) for 60 min. Thereafter, serum was removed, divided into portions (1 ml/tube) and stored in −80° C. The blood was centrifuged at 311 g for 10 min. Thereafter, 1 part whole blood+5 parts lysis buffer were mixed, left to stand at RT for 15 min and then centrifuged at 311 g for 10 min. The supernatant was discarded and the pellet was washed with RPMI 1640 medium (repeated 3×). The cells were then counted and frozen at −170° C. in nitrogen at 5×10^6/ml (freezing medium: RPMI 1640 medium containing 5% DMSO, dimethyl sulfoxide=cryopreservation). In addition, the immune status was measured from one tube (FACS analysis, see below).
# RNA was extracted from MNCs and homogenized tumor tissue using the RNA Extraction Kit (Qiagen, Hilden, Germany), washed in DEPC 75% ethanol solution and then stored at −70° C. until it was processed further. The amount of RNA was determined by measuring absorption at 260 nm. The 260:280 ratio was determined within the 1.8-2.0 range; it was thus possible to prevent a contamination of the RNA by proteins. […]
# The ‘real-time reverse transcription polymerase chain reaction’ method (real-time RT-PCR for short) is used for determining the expression of various genes. Said method allows the quantification of the expression of a gene in question in relation to the control genes. […]
# MNC [2] = test: Cytokine production by MNC after incubation (Luminex immunobead multiplex assay)
# Text: (§2) Peripheral blood mononuclear cells (PBMC, i.e., mononuclear cells (MNC)). This refers to mononuclear blood cells which have a round cell nucleus. These are, for example, lymphocytes and monocytes. Said cells play an important role in the immune system in controlling infections. PBMC or MNC are frequently employed in diagnostics as an indicator for infections which are present, as a factor for prognosing the course of an HIV infection and in clinical research. From the blood and sera collection of the tumor tissue bank and the tumor cells of an individual tumor patient that were likewise stored in said bank, they were, after passing through a specific thawing/revitalization procedure, examined for their protein and gene expression, apoptosis behavior and their released messenger substances (cytokine profiles) under the influence of the colostrum preparation Lactobin® N, vitamin D3 and also the combination in a specifically selected repertoire of methods.
# as §1
# The cryotube to be thawed was removed from the nitrogen and immediately transferred to a 37° C. water bath. Once the cells had detached from the inner wall of the cryotube (1-1.5 min), they were transferred to a sterile 50 ml Falcon tube containing 40 ml of cold medium. After a 5-minute centrifugation at 400 g, the medium was removed, the cell pellet was resuspended in 6 ml of warmed-up medium and the cells were counted. […]
# Interleukin (IL)-12 and proinflammatory factors such as […], IL-6, IFN-γ, TNF-α and anti-inflammatory factors such as IL-10 and IL-13 in the serum samples were measured in duplicate using an immunobead-based multiplex assay. The assays were carried out on a Bio-Plex system (Biosource).
# The microspheres coated with mixtures of corresponding capture antibodies and the labeled detection antibodies were purchased from Biosource (Camarillo, […]). The reagents had already been tested and qualified by the manufacturer to rule out a cross-reactivity of the antibody-coated microspheres.
# The Luminex measurements were carried out in order to determine further expressed MNC cytokines. 25 μl of antibody-coated microspheres were added to 96-well plates [mixture of the cytokines GM-CSF, IFN-γ, IL-1β, IL-2, IL-4, IL-5, IL-6, IL-8, IL-10 and TNF-α; ready-prepared kit, from Biosource International, California, USA]. After washing had been carried out twice, 50 μl of incubation buffer, 50 μl of ready-prepared sample dilution and 50 μl of sample were pipetted into each well. The plates were incubated in the dark on a shaker for 2 hours at room temperature and again washed twice. Thereafter, 100 μl of the biotinylated detection antibody were added to each well, incubated in the dark on a shaker for a further hour at room temperature, and again washed twice. 100 μl of SAV-RPE (R-phycoerythrin fluorescent dye, from Biosource International) were pipetted into each well, the plates were again shaken in the dark for 30 min at room temperature and washed three times. Each assay preparation was adjusted with 100 μl of wash buffer per well as the final volume and the plates were measured in the Luminex reader (Luminex 100, from Luminex Applied Systems, Sheffield, UK). […]
# MNC [3] = test: IGF-1 protein determination (ELISA) in MNC incubations
# Text: as §2
# The examinations were carried out in order to detect the cytokine insulin-like growth factor 1 (IGF-1) present in the samples. To this end, use was made of enzyme-linked immunosorbent assay (ELISA) sets (from Biosource International, California, USA) in accordance with the protocol instructions from the manufacturer. 50 μl of standard sample, control and the samples were pipetted per well into 96-well plates coated with anti-IGF-1. Thereafter, 50 μl of biotin conjugate (second antibody against IGF-1) were added. Subsequently, the plates were incubated at room temperature for 90 min, washed four times, and 100 μl of streptavidin-HRP working solution were pipetted into the wells and the plate was incubated at room temperature for 45 min. Thereafter, the plates were again washed four times, 100 μl of stabilized chromogen were added and incubated at room temperature for 30 min. Lastly, 100 μl of stop solution were pipetted. The results were read off on the ELISA reader at 450 nm (Dynatech Laboratories, Sullyfield, USA).
# To prepare a preparation according to the invention, the above-described colostrum powder (preferably Lactobin N) was admixed with an appropriate amount of the vitamin D3-containing powder, achieving the inventive concentration of vitamin D3. A mixing ratio used according to the invention was 0.2 mg of the vitamin D3-containing powder per gram of colostrum powder (0.2 mg/g). This yielded 0.5 μg of vitamin D3/g of ready-made preparation for the samples. A recommended daily dose is 10 g of ready-made preparation, i.e., 5 μg of vitamin D3. […] Similarly, only the vitamin D3 preparation was used when the samples were treated only with vitamin D3 (e.g., “Vit. D3” in Table 1).
# [4] = MNC of CRC patients UICC I (n = 6)
# [5] = MNC of CRC patients UICC II (n = 6)
# [6] = MNC of CRC patients UICC III (n = 6)
# [7] = MNC of CRC patients UICC IV (n = 6)
smiles,measurement,setting,value
"C=C1CC[C@H](O)C/C1=C/C=C1\CCC[C@]2(C)[C@@H]([C@H](C)CCCC(C)C)CC[C@@H]12 [Vit D3, cholecalciferol]",expression of the IGF-1 gene in MNC,[1],drop in the gene expression profile
same,IFN-γ,MNC [2]; [4],58.5 pg/mL
same,IL-1β,MNC [2]; [4],42.5 pg/mL
same,IL-6,MNC [2]; [4],98.7 pg/mL
same,IL-10,MNC [2]; [4],18.3 pg/mL
same,IL-12,MNC [2]; [4],74.9 pg/mL
same,IL-13,MNC [2]; [4],30.1 pg/mL
same,TNF-α,MNC [2]; [4],83.6 pg/mL
same,IFN-γ,MNC [2]; [5],77.3 pg/mL
same,IL-1β,MNC [2]; [5],34.8 pg/mL
same,IL-6,MNC [2]; [5],102.8 pg/mL
same,IL-10,MNC [2]; [5],18.1 pg/mL
same,IL-12,MNC [2]; [5],80.1 pg/mL
same,IL-13,MNC [2]; [5],27.9 pg/mL
same,TNF-α,MNC [2]; [5],169.1 pg/mL
same,IFN-γ,MNC [2]; [6],215.9 pg/mL
same,IL-1β,MNC [2]; [6],169.4 pg/mL
same,IL-6,MNC [2]; [6],91.7 pg/mL
same,IL-10,MNC [2]; [6],17.9 pg/mL
same,IL-12,MNC [2]; [6],214.7 pg/mL
same,IL-13,MNC [2]; [6],26.1 pg/mL
same,TNF-α,MNC [2]; [6],331.5 pg/mL
same,IFN-γ,MNC [2]; [7],292.5 pg/mL
same,IL-1β,MNC [2]; [7],369.9 pg/mL
same,IL-6,MNC [2]; [7],213.1 pg/mL
same,IL-10,MNC [2]; [7],7.9 pg/mL
same,IL-12,MNC [2]; [7],499.9 pg/mL
same,IL-13,MNC [2]; [7],9.1 pg/mL
same,TNF-α,MNC [2]; [7],413.1 pg/mL
same,IFN-γ,MNC [2]; MNC of Control (n = 6),12.8 pg/mL
same,IL-1β,MNC [2]; MNC of Control (n = 6),4.8 pg/mL
same,IL-6,MNC [2]; MNC of Control (n = 6),3.3 pg/mL
same,IL-10,MNC [2]; MNC of Control (n = 6),27.9 pg/mL
same,IL-12,MNC [2]; MNC of Control (n = 6),47.7 pg/mL
same,IL-13,MNC [2]; MNC of Control (n = 6),43.6 pg/mL
same,TNF-α,MNC [2]; MNC of Control (n = 6),62.6 pg/mL
same,IGF-1,MNC [3]; [4],148.6 ng/mL
same,IGF-1,MNC [3]; [5],213.4 ng/mL
same,IGF-1,MNC [3]; [6],299.1 ng/mL
same,IGF-1,MNC [3]; [7],896.4 ng/mL
same,IGF-1,MNC [3]; MNC of Control (n = 6),90.3 ng/mL
